Data published in BindingDB's records for doi:10.1021/jm960450v (National Cancer Institute-Bethesda, 1997).

Columns and labels:
Integrase [1] = molecular target: T1, Integrase (Human immunodeficiency virus 1, UniProt Q7ZJM1); assay: Inhibitory activity against 3'-processing of DNA by HIV-1 integrase
Integrase [2] = molecular target: T1, Integrase; assay: Integration of DNA by HIV -1 integrase
Integrase [3] = molecular target: T1, Integrase; assay: Inhibitory activity against 3'-processing of DNA byHIV-1 integrase

T1 sequence (Q7ZJM1 whole entry): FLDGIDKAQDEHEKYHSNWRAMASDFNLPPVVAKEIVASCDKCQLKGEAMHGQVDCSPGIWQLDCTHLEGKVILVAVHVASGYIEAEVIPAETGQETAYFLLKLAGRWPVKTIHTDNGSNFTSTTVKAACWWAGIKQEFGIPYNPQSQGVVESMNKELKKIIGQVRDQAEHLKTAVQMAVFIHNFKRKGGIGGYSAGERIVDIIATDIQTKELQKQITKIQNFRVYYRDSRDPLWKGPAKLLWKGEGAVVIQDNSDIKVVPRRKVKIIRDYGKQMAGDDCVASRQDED

SMILES	IC50 (Integrase [1])	IC50 (Integrase [2])	IC50 (Integrase [3])
O=c1oc2ccccc2c(O)c1C(c1ccc2ccccc2c1)c1c(O)c2ccccc2oc1=O	20 µM	16 µM	–
O=c1oc2ccccc2c(O)c1C(c1ccc(OCc2ccccc2)cc1)c1c(O)c2ccccc2oc1=O [3-[4-benzyloxyphenyl(4-hydroxy-2-oxo-2H-3-chromenyl)methyl]-4-hydroxy-2H-2-chromenone]	19 µM	–	–
O=c1oc2ccccc2c(O)c1C(c1ccc(-c2ccccc2)cc1)c1c(O)c2ccccc2oc1=O	14 µM	–	–
O=c1oc2ccccc2c(O)c1C(c1cccs1)c1c(O)c2ccccc2oc1=O	100 µM	–	–
O=c1oc2ccccc2c(O)c1C(c1ccc2c(c1)Cc1ccccc1-2)c1c(O)c2ccccc2oc1=O [3-[9H-2-fluorenyl(4-hydroxy-2-oxo-2H-3-chromenyl)methyl]-4-hydroxy-2H-2-chromenone]	11 µM	–	–
O=c1oc2ccccc2c(O)c1C(c1cc(OCc2ccccc2)cc(OCc2ccccc2)c1)c1c(O)c2ccccc2oc1=O	–	12 µM	–
O=c1oc2ccccc2c(O)c1C(c1ccc([N+](=O)[O-])cc1)c1c(O)c2ccccc2oc1=O	–	–	50 µM
CN(C)c1ccc(C(c2c(O)c3ccccc3oc2=O)c2c(O)c3ccccc3oc2=O)cc1	100 µM	50 µM	88 µM
O=c1oc2ccccc2c(O)c1Cc1cccc(Cc2c(O)c3ccccc3oc2=O)c1 [4-hydroxy-3-[3-(4-hydroxy-2-oxo-2H-3-chromenylmethyl)benzyl]-2H-2-chromenone]	34 µM	–	–
O=c1oc2ccccc2c(O)c1C(c1ccco1)c1c(O)c2ccccc2oc1=O	34 µM	–	–
